In patent US20110028686A1, “Protein binding miniature proteins” (Yale University, priority 2000, published 2011):
Ends that are not written are not given here. Peptide text beside a SMILES is read from it. * marks the point of attachment. Fluorescein(5-NHCOCH2) = O=C(C*)Nc1ccc2c(c1)C(=O)OC21c2ccc(O)cc2Oc2cc(O)ccc21

Assays:
[1] = tested on: cGMP-dependent protein kinase (PKG); assay: Phosphotransferase assay, PKG; format: biochemical; details: 1 up to 5 μM
[2] = biological target: Akt kinase (PKB) (Homo sapiens, UniProt P31749); assay: Phosphotransferase assay, PKB; format: biochemical; details: 1-K252a up to 100 nM; 1 up to 5 μM
Sequence of Akt kinase (PKB) (P31749 whole entry, species assumed): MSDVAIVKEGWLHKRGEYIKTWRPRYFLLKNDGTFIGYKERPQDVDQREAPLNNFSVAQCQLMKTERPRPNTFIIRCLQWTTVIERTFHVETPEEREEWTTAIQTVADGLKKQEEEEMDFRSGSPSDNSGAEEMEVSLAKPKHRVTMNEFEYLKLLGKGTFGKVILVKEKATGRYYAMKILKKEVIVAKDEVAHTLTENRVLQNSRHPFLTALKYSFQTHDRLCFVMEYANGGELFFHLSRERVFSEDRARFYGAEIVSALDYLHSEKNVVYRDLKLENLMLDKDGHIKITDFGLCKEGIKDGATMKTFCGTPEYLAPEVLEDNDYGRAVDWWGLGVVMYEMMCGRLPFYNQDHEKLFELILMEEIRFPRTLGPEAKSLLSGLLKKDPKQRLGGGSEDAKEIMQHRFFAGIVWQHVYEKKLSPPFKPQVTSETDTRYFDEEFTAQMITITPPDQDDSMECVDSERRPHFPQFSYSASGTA

[3] = biological target: protein kinase Cα (PKC-α) (Homo sapiens, UniProt P17252); assay: Phosphotransferase assay, PKC-α; format: biochemical; details: 1-K252a up to 100 nM; 1 up to 5 μM
[4] = tested on: Ca++/calmodulin kinase II (CamKII); assay: Phosphotransferase assay, CamKII; format: biochemical; details: 1-K252a up to 100 nM; 1 up to 5 μM
[5] = biological target: PKA (Homo sapiens, UniProt P17612); assay: PKA phosphotransferase assay, streptavidin-matrix capture of [32P]-phosphorylated substrates; format: biochemical; details: ATP and peptide substrate below KM
[6] = biological target: catalytic subunit of PKA (Homo sapiens, UniProt P17612); assay: Fluorescence polarization, affinity for PKA catalytic subunit; format: binding; details: presence of 100 μM ATP

| Kd [6] [nM] | Molecule | inhibition of PKG phosphotransferase activity [1] | inhibition of PKB phosphotransferase activity [2] | inhibition of PKC-α phosphotransferase activity [3] | inhibition of CamKII phosphotransferase activity [4] | IC50 [5] [nM] |
| --- | --- | --- | --- | --- | --- | --- |
|  | GPSQPTYPGDDAPVEDLIRFYNDLTYYLFVVSGRTGRRNAIHDC-NH2 (C-terminus assumed) [compound 1] | inhibiting no other kinase tested | inhibiting no other kinase tested | inhibiting no other kinase tested | inhibiting no other kinase tested |  |
|  | COC(=O)[C@@]1(O)C[C@H]2O[C@]1(C)n1c3ccccc3c3c4c(c5c6ccccc6n2c5c31)C(=O)NC4 [K252a, reference compound] | inhibited by K252a | inhibited by K252a | inhibited by K252a | inhibited by K252a | 0.14 ± 0.003 |
| 570 ± 123 | CC[C@H](C)[C@H](NC(=O)[C@H](C)NC(=O)[C@H](CC(N)=O)NC(=O)[C@H](CCCNC(=N)N)NC(=O)[C@H](CCCNC(=N)N)NC(=O)CNC(=O)[C@@H](NC(=O)[C@@H](NC(=O)CNC(=O)[C@H](CC(C)C)NC(=O)[C@H](Cc1ccc(O)cc1)NC(=O)[C@@H](NC(=O)[C@H](Cc1ccccc1)NC(=O)[C@H](CC(C)C)NC(=O)[C@H](C)NC(=O)[C@H](Cc1ccc(O)cc1)NC(=O)[C@@H](NC(=O)[C@H](Cc1ccccc1)NC(=O)[C@H](CCCNC(=N)N)NC(=O)[C@@H](NC(=O)[C@H](CC(C)C)NC(=O)[C@H](CC(=O)O)NC(=O)[C@H](CCC(=O)O)NC(=O)[C@@H](NC(=O)[C@@H]1CCCN1C(=O)[C@H](C)NC(=O)[C@H](CC(=O)O)NC(=O)[C@H](CC(=O)O)NC(=O)CNC(=O)[C@@H]1CCCN1C(=O)[C@H](Cc1ccc(O)cc1)NC(=O)[C@@H](NC(=O)[C@@H]1CCCN1C(=O)[C@H](CCC(N)=O)NC(=O)[C@H](CO)NC(=O)[C@@H]1CCCN1C(=O)CN)[C@@H](C)O)C(C)C)[C@@H](C)CC)[C@@H](C)O)[C@@H](C)CC)C(C)C)C(C)C)C(=O)N[C@@H](Cc1c[nH]cn1)C(=O)N[C@@H](CC(=O)O)C(=O)N[C@@H](CSCC(=O)Nc1ccc2c(c1)C(=O)OC21c2ccc(O)cc2Oc2cc(O)ccc21)C(N)=O [2^Flu] (H-GPSQPTYPGDDAPVEDLIRFTYALFIYLGVVGRRNAIHDC(Fluorescein(5-NHCOCH2))-NH2; N-terminus and C-terminus assumed) |  |  |  |  |  |
